Reference: article PMC9574867, “Discovery and Characterization of Synthesized and FDA-Approved Inhibitors of Clostridial and Bacillary Collagenases” (Journal of Medicinal Chemistry, 2022)
In brackets after ≈: the same amount, converted by molar mass.

How the values were obtained:
MMP-1 = target: T1, MMP-1 (Homo sapiens, UniProt P03956); assay: MMP inhibition assay, MMP-1; format: biochemical
T1 construct: catalytic domains of three human MMPs; purchased Sigma-Aldrich
T1 sequence (P03956 98-276 limits assumed): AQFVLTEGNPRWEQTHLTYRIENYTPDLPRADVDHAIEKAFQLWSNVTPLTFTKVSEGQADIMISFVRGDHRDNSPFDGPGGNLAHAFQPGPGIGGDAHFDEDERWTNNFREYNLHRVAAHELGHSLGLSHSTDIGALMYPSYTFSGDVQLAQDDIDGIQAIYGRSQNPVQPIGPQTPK
Method: (§1) To assess the selectivity of the compounds over human MMPs and on other bacterial collagenases, selected compounds were tested against ColG-CU and ColH-PD from C. histolyticum and ColA-CU from B. cereus strain ATCC14579. In addition, the compounds were tested on catalytic domains of three human MMPs, which are characterized by different depths of the S1′ binding pocket (MMP-1 (shallow), −2 (intermediate), and −3 (deep)). They were also tested against other important human off-targets, which are involved in gene expression and the processing of TNF-α; these include HDAC-3, -8, TACE (ADAM-17),[33],[34] and COX-1.
(§2) The MMP inhibition assay (Sigma-Aldrich, Saint Louise, MO) was performed as previously reported and in accordance with the manufacturer’s instructions. The fluorescence signals were measured in a CLARIOstar plate reader (BMG LABTECH, Ortenberg, Germany) at a concentration of 100 μM.

B. cereus AH187 = assay: B. cereus growth inhibition assay; format: cell-based; details: Bacillus cereus, AH187; BHI medium, 37 °C, 48 h, 200–3 μM; read-out: MIC50 (µM) AH187
in vitro [1] = details: dog, MDCK II cells (Madin–Darby canine kidney II)
in vitro [2] = details: human, HEK293 cells (embryonal kidney)
HDAC-3 = HDAC-3 (Homo sapiens, UniProt O15379); assay: Human off-target inhibition, HDAC-3; format: biochemical
Method: as §1

[3] = system: B. cereus collagenases released in the NHDF infection model; format: cell-based, B. cereus AH187
ColG-CU = ColG-CU (Hathewaya histolytica, UniProt Q9X721); assay: biochemical; format: biochemical, C. histolyticum; details: 100 μM; read-out: Percent inhibition of ColG-CU
MMP-3 = target: T2, MMP-3 (Homo sapiens, UniProt P08254); assay: MMP inhibition assay, MMP-3; format: biochemical
T2 construct: catalytic domains of three human MMPs; purchased Sigma-Aldrich
Method: as §1, §2

TACE (ADAM-17) = TACE (ADAM-17) (Homo sapiens, UniProt P78536); assay: Human off-target inhibition, TACE; format: biochemical
Method: as §1

ColQ1-CU = ColQ1-CU (Bacillus cereus, UniProt B9J3S4); assay: biochemical; design: species or system B. cereus strain Q1
MMP-2 = target: T3, MMP-2 (Homo sapiens, UniProt P08253); assay: MMP inhibition assay, MMP-2; format: biochemical
T3 construct: catalytic domains of three human MMPs; purchased Sigma-Aldrich
Method: as §1, §2

HDAC-8 = target: T4, HDAC-8 (Homo sapiens, UniProt Q9BY41); assay: Human off-target inhibition, HDAC-8; format: biochemical
T4 sequence (Q9BY41 1-377): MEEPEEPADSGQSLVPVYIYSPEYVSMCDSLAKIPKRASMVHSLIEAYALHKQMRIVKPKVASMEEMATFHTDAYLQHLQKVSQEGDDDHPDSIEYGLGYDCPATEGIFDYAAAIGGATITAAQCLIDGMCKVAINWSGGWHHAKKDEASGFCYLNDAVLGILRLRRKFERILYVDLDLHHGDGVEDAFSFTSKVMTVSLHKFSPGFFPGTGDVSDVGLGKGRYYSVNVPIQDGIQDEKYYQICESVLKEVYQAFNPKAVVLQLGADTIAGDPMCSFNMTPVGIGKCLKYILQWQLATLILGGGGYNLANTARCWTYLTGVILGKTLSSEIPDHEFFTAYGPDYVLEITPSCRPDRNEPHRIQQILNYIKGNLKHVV
Method: as §1

in vitro [4] = details: human, NHDF cells (normal human dermal fibroblasts)

Chain of ColQ1-CU (B9J3S4 94-765 limits assumed): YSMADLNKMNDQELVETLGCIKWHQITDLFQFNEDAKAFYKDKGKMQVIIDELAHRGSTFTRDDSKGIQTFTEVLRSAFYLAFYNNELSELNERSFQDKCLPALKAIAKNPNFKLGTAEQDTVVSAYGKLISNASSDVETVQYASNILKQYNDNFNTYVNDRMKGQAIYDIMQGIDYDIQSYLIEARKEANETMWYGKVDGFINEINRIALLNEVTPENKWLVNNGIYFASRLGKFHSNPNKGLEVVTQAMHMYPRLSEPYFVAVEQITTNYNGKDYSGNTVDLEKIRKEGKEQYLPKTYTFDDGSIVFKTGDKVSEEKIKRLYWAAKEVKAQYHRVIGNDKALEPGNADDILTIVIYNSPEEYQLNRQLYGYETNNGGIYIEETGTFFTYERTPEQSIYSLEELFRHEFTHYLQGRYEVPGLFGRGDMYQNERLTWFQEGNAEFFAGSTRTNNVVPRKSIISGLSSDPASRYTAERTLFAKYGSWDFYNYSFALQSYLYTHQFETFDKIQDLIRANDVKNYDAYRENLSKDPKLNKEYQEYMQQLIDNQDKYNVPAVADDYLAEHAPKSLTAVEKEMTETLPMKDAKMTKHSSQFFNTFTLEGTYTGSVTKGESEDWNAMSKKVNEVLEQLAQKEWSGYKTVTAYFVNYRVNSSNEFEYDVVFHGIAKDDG
Chain of TACE (ADAM-17) (P78536 215-824): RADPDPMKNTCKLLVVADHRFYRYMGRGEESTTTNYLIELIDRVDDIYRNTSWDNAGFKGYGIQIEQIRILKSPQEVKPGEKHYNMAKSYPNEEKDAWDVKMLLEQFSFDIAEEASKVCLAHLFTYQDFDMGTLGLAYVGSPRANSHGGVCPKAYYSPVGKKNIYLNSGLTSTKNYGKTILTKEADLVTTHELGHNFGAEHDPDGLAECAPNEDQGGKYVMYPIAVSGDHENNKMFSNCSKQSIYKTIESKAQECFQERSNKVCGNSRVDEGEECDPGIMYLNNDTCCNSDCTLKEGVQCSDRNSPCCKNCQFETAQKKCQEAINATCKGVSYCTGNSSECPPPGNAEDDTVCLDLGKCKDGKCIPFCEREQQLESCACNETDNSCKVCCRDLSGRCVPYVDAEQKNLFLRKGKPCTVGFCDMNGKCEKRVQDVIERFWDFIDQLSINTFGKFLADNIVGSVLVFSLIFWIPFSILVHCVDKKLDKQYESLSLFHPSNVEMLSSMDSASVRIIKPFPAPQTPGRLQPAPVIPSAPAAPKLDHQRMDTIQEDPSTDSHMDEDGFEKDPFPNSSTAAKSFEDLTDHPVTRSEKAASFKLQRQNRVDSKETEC
T2 sequence (P08254 100-272 limits assumed): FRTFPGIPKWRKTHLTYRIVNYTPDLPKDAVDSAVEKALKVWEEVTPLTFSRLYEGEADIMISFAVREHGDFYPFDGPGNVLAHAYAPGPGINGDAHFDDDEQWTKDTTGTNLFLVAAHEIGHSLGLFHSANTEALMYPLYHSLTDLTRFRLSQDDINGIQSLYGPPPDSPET
Chain of HDAC-3 (O15379 whole entry): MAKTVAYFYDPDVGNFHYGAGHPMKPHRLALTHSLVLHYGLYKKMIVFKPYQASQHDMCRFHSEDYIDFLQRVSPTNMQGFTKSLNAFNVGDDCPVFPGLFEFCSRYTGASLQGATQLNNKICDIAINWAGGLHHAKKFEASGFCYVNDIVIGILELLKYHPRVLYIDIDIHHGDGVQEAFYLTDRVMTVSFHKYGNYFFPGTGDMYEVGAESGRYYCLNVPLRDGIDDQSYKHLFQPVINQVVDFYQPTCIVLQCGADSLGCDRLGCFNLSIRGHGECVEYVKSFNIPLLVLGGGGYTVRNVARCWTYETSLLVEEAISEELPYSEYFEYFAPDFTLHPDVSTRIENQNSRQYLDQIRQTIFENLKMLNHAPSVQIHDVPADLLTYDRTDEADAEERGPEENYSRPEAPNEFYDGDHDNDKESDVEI
Chain of HDAC-3 (Q9Y618 395-489 partner limits assumed): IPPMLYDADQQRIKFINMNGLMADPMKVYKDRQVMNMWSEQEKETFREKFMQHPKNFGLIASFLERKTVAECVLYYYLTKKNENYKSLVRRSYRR
Chain of ColG-CU (Q9X721 111-786): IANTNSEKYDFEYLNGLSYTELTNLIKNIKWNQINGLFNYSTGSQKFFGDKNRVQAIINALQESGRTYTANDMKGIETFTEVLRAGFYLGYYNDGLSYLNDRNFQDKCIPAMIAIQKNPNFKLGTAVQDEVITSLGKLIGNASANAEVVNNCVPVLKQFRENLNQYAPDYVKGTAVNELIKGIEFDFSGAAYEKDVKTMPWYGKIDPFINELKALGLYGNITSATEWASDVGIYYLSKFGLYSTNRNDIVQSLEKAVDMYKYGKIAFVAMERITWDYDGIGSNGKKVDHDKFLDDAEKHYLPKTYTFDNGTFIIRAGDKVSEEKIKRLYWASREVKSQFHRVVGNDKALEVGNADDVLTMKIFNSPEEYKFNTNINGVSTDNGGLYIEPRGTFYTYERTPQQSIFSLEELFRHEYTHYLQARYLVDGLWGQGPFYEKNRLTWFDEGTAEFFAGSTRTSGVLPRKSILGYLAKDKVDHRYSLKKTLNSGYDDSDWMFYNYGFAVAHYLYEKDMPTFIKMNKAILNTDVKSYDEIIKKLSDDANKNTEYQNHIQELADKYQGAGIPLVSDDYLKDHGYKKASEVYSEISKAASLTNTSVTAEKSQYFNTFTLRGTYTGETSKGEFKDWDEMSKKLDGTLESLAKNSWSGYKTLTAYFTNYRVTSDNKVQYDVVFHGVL
T3 sequence (P08253 110-444 limits assumed): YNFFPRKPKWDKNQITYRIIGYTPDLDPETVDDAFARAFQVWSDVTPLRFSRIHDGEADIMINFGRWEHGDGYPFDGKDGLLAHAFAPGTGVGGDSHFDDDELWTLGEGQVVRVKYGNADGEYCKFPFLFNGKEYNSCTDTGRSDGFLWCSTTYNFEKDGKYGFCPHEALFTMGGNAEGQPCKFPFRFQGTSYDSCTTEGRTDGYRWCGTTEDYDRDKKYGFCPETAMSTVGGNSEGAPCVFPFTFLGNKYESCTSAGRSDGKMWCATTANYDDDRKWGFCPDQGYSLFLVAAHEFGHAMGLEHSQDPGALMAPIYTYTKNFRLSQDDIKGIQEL

## O=P(O)(O)c1nc2cc(Cl)c(Cl)cc2nc1P(=O)(O)O [Compound 13, (6,7-Dichloroquinoxaline-2,3-diyl)bis(phosphonic acid)]
MMP-1
  IC50: 53 ± 3 µM
B. cereus AH187
  MIC50: 200 µM (≈ 71.8 µg/mL)
In vitro [1]
  IC50: > 200 µM
In vitro [2]
  IC50: 100 µM
HDAC-3
  IC50: > 100 µM
[3]
  Concentration giving complete inhibition of gelatinolytic activity: 200 µM
ColG-CU
  inhibition at 100 µM: 68 ± 4%
MMP-3
  IC50: 33 ± 11 µM
TACE (ADAM-17)
  IC50: > 100 µM
ColQ1-CU
  IC50: 5.2 ± 0.4 µM
ColQ1-CU; read-out: % Inhibition (ColQ1-CU) Mean
  inhibition at 100 µM: 98 ± 1%
MMP-2
  IC50: 79 ± 2 µM
HDAC-8
  IC50: > 100 µM
In vitro [4]
  IC50: > 200 µM

## O=C(Nc1ccc(Cl)c(Cl)c1)c1ccc2nc(P(=O)(O)O)c(P(=O)(O)O)nc2c1 [Compound 14, (6-((3,4-Dichlorophenyl)carbamoyl)quinoxaline-2,3-diyl)bis(phosphonic acid)]
MMP-1
  IC50: > 100 µM
B. cereus AH187
  MIC50: 100 µM (≈ 47.8 µg/mL)
In vitro [1]
  IC50: > 100 µM
In vitro [2]
  IC50: > 100 µM
HDAC-3
  IC50: > 100 µM
[3]
  Concentration giving complete inhibition of gelatinolytic activity: 100 µM
ColG-CU
  inhibition at 100 µM: 72 ± 3%
MMP-3
  IC50: > 100 µM
TACE (ADAM-17)
  IC50: > 100 µM
ColQ1-CU
  IC50: 16 ± 1 µM
MMP-2
  IC50: > 100 µM
HDAC-8
  IC50: > 100 µM
In vitro [4]
  IC50: > 100 µM
